We go through 25 molecules from US20210330650A1, “SPIROCHROMANE DERIVATIVES” (RICHTER GEDEON NYRT., priority 2018, published 2021).

For assay [1], the target named is T1, human α7 nAchR (Homo sapiens, UniProt P36544).
T1 construct: expressed in transfected cells
As to the kind of experiment: Human α7 nicotinic acetylcholine receptor [Ca2+]i assay (Ca2+ fluorometry, PAM concentration-response). Type of assay: cell-based. The note with it: Flp-In 293 cells expressing human α7 nAchR and human RIC-3; in presence of saturating agonist (mostly PNU-282987, 1 μM). The procedure: Human α7 Nicotinic Acetylcholine Receptor [Ca2+]i Assay
Cells: Flp-In 293 cells stably expressing human α7 nAchR and human RIC-3 (α7 cells, generated in house.)
Materials: 96-well plates coated with PDL (Falcon), culture medium, assay buffer, DMSO, FLIPR Calcium 5 kit (Molecular Devices), probenecid, agonist and PAM test compounds.
Brief Description of the Method (Ca^2+ Fluorometry)
α7 cells stably expressing human α7 nAchR were cultured in the medium detailed above, and were split twice a week. For the fluorometric measurements of cytosolic Ca^2+ ion concentration ([Ca^2+]i) cells were seeded in 96-well microplates at a density of 60000 cells/well and maintained overnight in a tissue culture incubator at 37° C. under an atmosphere of 95% air/5% CO2. The plating medium was identical with the culture medium. 50 μl of the growth medium was aspirated with a cell washer (BioTek Elx405UCVWS). Then 50 μl/well Calcium 5 kit diluted 2-fold in assay buffer was added manually using an 8-channel pipette. After an incubation period (20 minutes, 37° C.) 50 μl/well assay buffer containing vehicle (DMSO, 4% added) or reference α7 PAMs (4× of the final concentration) were added manually and the cells were incubated for an additional 10 minutes at 37° C. Baseline and agonist-evoked [Ca^2+]i-changes were monitored with FlexStation II (Molecular Devices, Sunnyvale, Calif.), a plate reader fluorometer with integrated 8-channel fluid addition capability. Fluorescence measurements were carried out at 37° C. The dye was excited at 485 nm, emission was sampled at 525 nm at 1.4-s intervals. Baseline was recorded for 20 seconds followed by agonist stimulation. 50 μl 4× concentrated agonist solution was added to the cells using the pipettor of FlexStation II and fluorescence was monitored for an additional 40 seconds. Final DMSO concentration was 1% for all treatments. To achieve this, a series of DMSO stock solutions were prepared from all test compounds. These stocks were stored under 0° C. and were further diluted in assay buffer to obtain the desired final concentration immediately before the measurement. Agonist and PAM concentration-response studies were conducted in the presence of saturating concentrations of PAMs (mostly PNU-120596, 5 μM) and agonists (mostly PNU-282987, 1 μM), respectively. Results were expressed as ΔF/F values using SoftMax Pro software (Molecular Devices), where F was the resting fluorescence preceding agonist application and ΔF was the increase in fluorescence at a given time (ΔF=maximum fluorescence intensity values after stimulation minus average fluorescence intensity values before stimulation). In all experiments, all treatments were measured in multiple wells in parallel, and the mean ΔF/F values were used for analysis.

For assay [2], the system named is Male NMRI mice. In words: Place recognition test (Y-maze), reversal of scopolamine-induced amnesia. The assay is classed as in vivo. Conditions: scopolamine 1 mg/kg i.p. The procedure: In Vivo Pharmacology (Place Recognition Test)
Animals: Male NMRI mice (Toxicoop, Hungary)
Substances: Scopolamine was dissolved in saline and administered at 1 mg/kg dose i.p. Test compounds were administered 30 minutes before the acquisition trial (T1) and scopolamine after the acquisition trial at a volume of 0.1 ml/10 g.
Procedure: The task was carried out in a transparent plexiglass Y-maze (each arm has a length of 40 cm, an inner width of 11 cm and a height of 30 cm). Numerous visual cues were placed around the arms and were kept constant during the experiment. The test consisted of two trials (T1 and T2) separated by an intertrial interval of 30 minutes. Mice were placed in the starting arm of the maze at the beginning of each trial. In T1, one of the symmetric arms of the maze was closed (it will be novel in T2) and the animals were allowed to explore the maze for 5 minutes (acquisition phase). In T2, mice had free access to all three arms for 2 minutes (retrieval phase). The time spent with exploration in the novel and familiar arms during T2 was measured. Differences between the exploration times spent in the familiar vs. novel arms of the maze for each group were evaluated by MANOVA, followed by Duncan post hoc test.

T1 sequence (P36544 23-502): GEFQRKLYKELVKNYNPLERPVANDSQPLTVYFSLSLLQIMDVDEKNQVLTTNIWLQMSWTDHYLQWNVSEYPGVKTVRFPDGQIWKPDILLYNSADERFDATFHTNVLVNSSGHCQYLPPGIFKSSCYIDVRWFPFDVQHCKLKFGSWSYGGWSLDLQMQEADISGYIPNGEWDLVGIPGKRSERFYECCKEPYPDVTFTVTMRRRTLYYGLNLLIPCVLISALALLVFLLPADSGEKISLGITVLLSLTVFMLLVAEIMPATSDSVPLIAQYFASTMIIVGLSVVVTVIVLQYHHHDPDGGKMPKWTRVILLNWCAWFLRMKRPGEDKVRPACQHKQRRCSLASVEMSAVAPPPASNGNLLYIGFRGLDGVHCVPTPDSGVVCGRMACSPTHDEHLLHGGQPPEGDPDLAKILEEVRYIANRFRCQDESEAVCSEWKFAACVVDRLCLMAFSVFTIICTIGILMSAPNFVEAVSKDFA

Usually EC50 stands for the concentration at which the effect is half-maximal. Consider `Cn1ccc2cc(CNC(=O)N3CCC4(CC(=O)c5cc(Cl)ccc5O4)C3)ccc21` (racemic) [Example 5], for which the EC50 in assay [1] was determined as 210 nM.

With `Cn1ccc2cc(CNC(=O)N3CCC4(CC(=O)c5cc(Cl)ccc5O4)C3)ccc21` (single isomer, unassigned) [Example 5a], in assay [1], the EC50 was 430 nM.

As for `Cn1ccc2cc(CNC(=O)N3CCC4(CC(=O)c5cc(Cl)ccc5O4)C3)ccc21` (single isomer, unassigned) [Example 5b], the EC50 in assay [1] amounted to 400 nM.

With `Cc1cc2cc(CNC(=O)N3CC4(CC(=O)c5cc(F)ccc5O4)C3)ccc2[nH]1` [Example 1, 6′-Fluoro-N-[(2-methyl-1H-indol-5-yl)methyl]-4′-oxo-3′,4′-dihydrospiro[azetidine-3,2′-[1]benzopyran]-1-carboxamide], the EC50 in assay [1] was found to be 120 nM. In addition, the “reversal of the scopolamine-induced amnesia in the place recognition assay (exploration time novel vs. familiar arm, significance)” value in assay [2] (1 mg/kg i.p.) is “++ (^++p < 0.01)”.

`Cn1ccc2cc(CNC(=O)N3CC4(CC(=O)c5cc(Cl)ccc5O4)C3)ccc21` [Example 3, 6′-chloro-N-[(1-methyl-1H-indol-5-yl)methyl]-4′-oxo-3′,4′-dihydrospiro[azetidine-3,2′-[1]benzopyran]-1-carboxamide]: in assay [1], the 50% effective concentration (EC50) was 120 nM.

Turning to `Cn1ccc2cc(CNC(=O)N3CC4(CC(=O)c5ccc(F)cc5O4)C3)ccc21` [Example 6, 7′-fluoro-N-[(1-methyl-1H-indol-5-yl)methyl]-4′-oxo-3′,4′-dihydrospiro[azetidine-3,2′-[1]benzopyran]-1-carboxamide], the EC50 in assay [1] was 190 nM. The “reversal of the scopolamine-induced amnesia in the place recognition assay (exploration time novel vs. familiar arm, significance)” value in assay [2] (1 mg/kg i.p.) is given as “+ (^+p < 0.05)”; in assay [2] (3 mg/kg i.p.) it was “++ (^++p < 0.01)”; in assay [2] (10 mg/kg i.p.) it was “+++ (^+++p < 0.001)”.

In the case of `Cn1ccc2cc(CNC(=O)N3CC4(CC(=O)c5ccccc5O4)C3)ccc21` [Example 7, N-[(1-methyl-1H-indol-5-yl)methyl]-4′-oxo-3′,4′-dihydrospiro[azetidine-3,2′-[1]benzopyran]-1-carboxamide], in assay [1], the EC50 came out at 230 nM. In addition, the “reversal of the scopolamine-induced amnesia in the place recognition assay (exploration time novel vs. familiar arm, significance)” value in assay [2] (1 mg/kg i.p.), in assay [2] (3 mg/kg i.p.) and in assay [2] (10 mg/kg i.p.) was “+++ (^+++p < 0.001)” in each case.

Consider `Cn1ccc2cc(CNC(=O)N3CCC4(CCc5cc(Cl)ccc5O4)CC3)ccc21` [Example 10, 6-chloro-N-[(1-methyl-1H-indol-5-yl)methyl]-3,4-dihydrospiro[1-benzopyran-2,4′-piperidine]-1′-carboxamide], for which the concentration giving a half-maximal response (EC50) in assay [1] stood at 100 nM.

Take `COc1ccc2c(c1)OC1(CCN(C(=O)NCc3ccc4c(ccn4C)c3)CC1)CC2=O` [Example 21]: in assay [1], the half-maximal effective concentration (EC50) turned out to be 280 nM.

Regarding `COc1ccc2c(c1)C(=O)CC1(CN(C(=O)NCc3ccc4c(c3)c(Cl)cn4C)C1)O2` [Example 25], the 50% effective concentration (EC50) in assay [1] stood at 230 nM.

With `O=C1CC2(CN(C(=O)NCc3ccc4[nH]ccc4c3)C2)Oc2ccc(Cl)cc21` [Example 26, 6′-chloro-N-[(1H-indol-5-yl)methyl]-4′-oxo-3′,4′-dihydrospiro[azetidine-3,2′-[1]benzopyran]-1-carboxamide], the EC50 in assay [1] is 390 nM. Further, the “reversal of the scopolamine-induced amnesia in the place recognition assay (exploration time novel vs. familiar arm, significance)” value in assay [2] (3 mg/kg i.p.) is “+ (^+p < 0.05)”.

As to `Cn1cc(Cl)c2cc(CNC(=O)N3CC4(CC(=O)c5ccccc5O4)C3)ccc21` [Example 37], in assay [1], the EC50 is 130 nM.

`Cn1cc(F)c2cc(CNC(=O)N3CC4(CC(=O)c5cc(F)ccc5O4)C3)ccc21` [Example 38]: in assay [1], the half-maximal effective concentration (EC50) is 220 nM.

As for `Cn1cc(Cl)c2cc(CNC(=O)N3CC4(CC(=O)c5cc(F)ccc5O4)C3)cnc21` [Example 39], the EC50 in assay [1] was found to be 730 nM.

Take `Cc1cc2cc(CNC(=O)N3CC4(CC(=O)c5cc(F)cc(F)c5O4)C3)ccc2[nH]1` [Example 41, 6′,8′-difluoro-N-[(2-methyl-1H-indol-5-yl)methyl]-4′-oxo-3′,4′-dihydrospiro[azetidine-3,2′-[1]benzopyran]-1-carboxamide]: the EC50 in assay [1] was determined as 60 nM. The “reversal of the scopolamine-induced amnesia in the place recognition assay (exploration time novel vs. familiar arm, significance)” value in assay [2] (1 mg/kg i.p.) and in assay [2] (3 mg/kg i.p.) was “+ (^+p < 0.05)” in each case.

As for `O=C1CC2(CN(C(=O)NCc3ccc4[nH]c(Cl)cc4c3)C2)Oc2cc(Cl)ccc21` [Example 43, 7′-chloro-N-[(2-chloro-1H-indol-5-yl)methyl]-4′-oxo-3′,4′-dihydrospiro[azetidine-3,2′-[1]benzopyran]-1-carboxamide], in assay [1], the EC50 was 360 nM. Also, the “reversal of the scopolamine-induced amnesia in the place recognition assay (exploration time novel vs. familiar arm, significance)” value is given as “+ (^+p < 0.05)” in assay [2] (1 mg/kg i.p.), “+++ (^+++p < 0.001)” in assay [2] (3 mg/kg i.p.) and “+++ (^+++p < 0.001)” in assay [2] (10 mg/kg i.p.).

As to `Cn1ccc2cc(CNC(=O)N3CC4(CC(=O)c5cc(C(F)(F)F)ccc5O4)C3)ccc21` [Example 50], the EC50 in assay [1] worked out at 150 nM.

Regarding `Cn1ccc2cc(CNC(=O)N3CC4(CC(=O)c5ccc(C(F)(F)F)cc5O4)C3)ccc21` [Example 52, N-[(1-methyl-1H-indol-5-yl)methyl]-4′-oxo-7′-(trifluoromethyl)-3′,4′-dihydrospiro[azetidine-3,2′-[1]benzopyran]-1-carboxamide], the EC50 in assay [1] was 130 nM. Also, the “reversal of the scopolamine-induced amnesia in the place recognition assay (exploration time novel vs. familiar arm, significance)” value in assay [2] (10 mg/kg i.p.) was “+ (^+p < 0.05)”.

`Cn1cc(Br)c2cc(CNC(=O)N3CC4(CC(=O)c5cc(F)ccc5O4)C3)cnc21` [Example 53]: in assay [1], the EC50 is 850 nM.

Take `Cn1ccc2cc(CNC(=O)N3CC4(CC(=O)c5cc(Cl)cc(Cl)c5O4)C3)cnc21` [Example 58]: in assay [1], the concentration giving a half-maximal response (EC50) worked out at 470 nM.

Turning to `Cn1ccc2cc(CNC(=O)N3CC4(CC(=O)c5ccc(C(F)(F)F)cc5O4)C3)cnc21` [Example 59], in assay [1], the 50% effective concentration (EC50) worked out at 500 nM.

Regarding `O=C1CC2(CN(C(=O)NCc3ccc4[nH]c(C(F)(F)F)cc4c3)C2)Oc2cc(F)ccc21` [Example 61, 7′-fluoro-4′-oxo-N-{[2-(trifluoromethyl)-1H-indol-5-yl]methyl}-3′,4′-dihydrospiro[azetidine-3,2′-[1]benzopyran]-1-carboxamide], the “reversal of the scopolamine-induced amnesia in the place recognition assay (exploration time novel vs. familiar arm, significance)” value in assay [2] (3 mg/kg i.p.) is on record as “++ (^++p < 0.01)”; in assay [2] (10 mg/kg i.p.), “+++ (^+++p < 0.001)”.

As to `Cc1cc2cc(CNC(=O)N3CC4(CC(=O)c5ccc(C(F)(F)F)cc5O4)C3)cnc2n1C` [Example 65], the EC50 in assay [1] was 750 nM.

Turning to `O=C1CC2(CN(C(=O)NCc3ccc4[nH]c(C(F)F)cc4c3)C2)Oc2cc(F)ccc21` [Example 69, N-{[2-(difluoromethyl)-1H-indol-5-yl]methyl}-7′-fluoro-4′-oxo-3′,4′-dihydrospiro[azetidine-3,2′-[1]benzopyran]-1-carboxamide], in assay [1], the EC50 came out at 120 nM.

Turning to `CN1CCCc2cc(CNC(=O)N3CC4(CC(=O)c5ccc(F)cc5O4)C3)ccc21` [Example 71, 7′-Fluoro-N-[(1-methyl-1,2,3,4-tetrahydroquinolin-6-yl)methyl]-4′-oxo-3′,4′-dihydrospiro[azetidine-3,2′-[1]benzopyran]-1-carboxamide], the EC50 in assay [1] was found to be 2300 nM.
